Values after ≈ are worked out from the molar mass of the structure shown.
Each compound was assayed on various strains of bacteria (assay: Antimicrobial potency: bacterial growth inhibition by OD600 (Antibacterial assay 1, MITC95)). Settings: Acinetobacter baumannii, 20 h, lowest concentration giving >95% growth inhibition, CAMHB, 18-22 h.
Type: cell-based, A. baumannii
Protocol: The concentrations of compounds required to inhibit the growth of various strains of bacteria were determined in an assay that assessed bacterial growth by measuring optical density at 600 nm (OD600). Test articles were dissolved in 100% DMSO and serially diluted two-fold from their maximal concentration in 100% DMSO. Forty-nine μl of bacterial inoculum (at approx. 2×10^5 cfu/mL in CAMHB) were put into wells of an assay plate. One μl of compound or DMSO was transferred from the source plate to the assay plate. The completed assay plates were then incubated at 35+2degC for 18-22 h. Bacterial growth was measured by reading OD600 on a spectrophotometer. Data analysis calculates the lowest concentration of compound which results in >95% growth inhibition (minimum inhibitory threshold concentration 95%, MITC95).

`O=C(O)c1cc(CN2CC(Oc3ccc(NS(=O)(=O)c4cnn(-c5ccc(F)cc5)n4)c(C(=O)O)c3)C2)ccc1NS(=O)(=O)c1cnn(-c2ccc(F)cc2)n1` [Compound 118] and `O=C(O)c1cc(OC[C@H]2CC[C@@H](COc3ccc(NS(=O)(=O)c4cnn(-c5ccc(F)cc5)n4)c(C(=O)O)c3)O2)ccc1NS(=O)(=O)c1cnn(-c2ccc(F)cc2)n1` [Compound 20] are the same in MIC: 0.0245 µM (≈ 0.0198 µg/mL) for the first, 0.0245 µM (≈ 0.0209 µg/mL) for the second.

`O=C(O)c1cc(NCC2CC(NCc3ccc(NS(=O)(=O)N4CCOC(c5ccc(F)cc5)C4)c(C(=O)O)c3)C2)ccc1NS(=O)(=O)c1cnn(-c2ccc(F)cc2)c1` (stereo not drawn) [Compound 36] and `Cn1nc(-c2ccc(F)cc2)cc1S(=O)(=O)Nc1ccc(CNC2CC(CNc3ccc(NS(=O)(=O)c4cnn(-c5ccc(F)cc5)c4)c(C(=O)O)c3)C2)cc1C(=O)O` (stereo not drawn) [Compound 33] are the same in MIC: 0.0489 µM (≈ 0.0417 µg/mL) for the first, 0.0489 µM (≈ 0.0414 µg/mL) for the second.

Compared with `O=C(O)c1cc(OC2CN(Cc3ccc(NS(=O)(=O)c4cnn(-c5ccc(Cl)cc5)c4)c(C(=O)O)c3)C2)ccc1NS(=O)(=O)CCc1ccc(F)cc1` [Compound 82], `O=C(O)c1cc(OC2CN(Cc3ccc(NS(=O)(=O)c4cnc(-c5ccc(Cl)cc5)s4)c(C(=O)O)c3)C2)ccc1NS(=O)(=O)CCc1ccc(F)cc1` [Compound 85] is 2-fold lower in MIC: 0.0346 µM (≈ 0.0271 µg/mL) for the first, 0.0173 µM (≈ 0.0139 µg/mL) for the second.

`O=C(O)c1cc(CN2CC(Oc3ccc(NS(=O)(=O)c4ccc(-c5ccc(F)cc5)cc4)c(C(=O)O)c3)C2)ccc1NS(=O)(=O)c1cnn(-c2ccc(F)cc2)c1` [Compound 100] and `O=C(O)c1cc(CN2CC(Oc3ccc(NS(=O)(=O)c4ccc(-c5ccc(F)cc5)cc4)c(C(=O)O)c3)C2)ccc1NS(=O)(=O)CCc1ccc(F)cc1` [Compound 102] are the same in MIC: 0.0489 µM (≈ 0.0399 µg/mL) for the first, 0.0489 µM (≈ 0.038 µg/mL) for the second.

`O=C(O)c1cc(COC2CC(OCc3ccc(NS(=O)(=O)c4ccc(-c5ccc(Cl)cc5)cc4)c(C(=O)O)c3)C2)ccc1NS(=O)(=O)CCc1ccc(F)cc1` (stereo not drawn) [Compound 18] and `O=C(O)c1cc(COC2CC(OCc3ccc(NS(=O)(=O)c4ccc(-c5ccc(F)cc5)cc4)c(C(=O)O)c3)C2)ccc1NS(=O)(=O)CCc1ccc(Cl)cc1` (stereo not drawn) [Compound 16] cannot be ordered by MIC: 0.0122 µM (≈ 0.01 µg/mL) for the first, under 0.0488 µM for the second.

Compared with `O=C(O)Cc1cc(CN2CC(Oc3ccc(NS(=O)(=O)c4cnn(-c5ccc(Cl)cc5)c4)c(CC(=O)O)c3)C2)ccc1NS(=O)(=O)c1cnn(-c2ccc(Cl)cc2)c1` [Compound 1, 2-(5-((1-(3-(carboxymethyl)-4-(1-(4-chlorophenyl)-1H-pyrazole-4-sulfonamido)benzyl)azetidin-3-yl)oxy)-2-(1-(4-chlorophenyl)-1H-pyrazole-4-sulfonamido)phenyl) acetic acid], `O=C(O)Cc1cc(CN2CC(Oc3ccc(NS(=O)(=O)c4cnn(-c5ccc(Cl)cc5)c4)c(C(=O)O)c3)C2)ccc1NS(=O)(=O)c1cnn(-c2ccc(Cl)cc2)c1` [Compound 2, 5-((1-(3-(carboxymethyl)-4-((1-(4-chlorophenyl)-1H-pyrazole)-4-sulfonamido)-benzyl)azetidin-3-yl)oxy)-2-((1-(4-chlorophenyl)-1H-pyrazole)-4-sulfonamido)benzoic acid] is 4-fold lower in MIC: 0.277 µM (≈ 0.24 µg/mL) for the first, 0.0692 µM (≈ 0.059 µg/mL) for the second.

`O=C(O)c1cc(CN2CC(Oc3ccc(NS(=O)(=O)c4cnc(-c5ccc(F)cc5)o4)c(C(=O)O)c3)C2)ccc1NS(=O)(=O)c1cnc(-c2ccc(F)cc2)o1` [Compound 120] and `CCCCc1ccc(S(=O)(=O)Nc2ccc(CN3CC(Oc4ccc(NS(=O)(=O)c5ccc(-c6ccc(F)cc6)cc5)c(C(=O)O)c4)C3)cc2C(=O)O)cc1` [Compound 108] are the same in MIC: 0.0489 µM (≈ 0.0395 µg/mL) for the first, 0.0489 µM (≈ 0.0385 µg/mL) for the second.

`O=C(O)c1cc(COC2CN(Cc3ccc(NS(=O)(=O)c4cnn(-c5ccc(F)cc5)c4)c(C(=O)O)c3)C2)ccc1NS(=O)(=O)c1cnn(-c2ccc(F)cc2)c1` [Compound 38] and `O=C(O)c1cc(OC2CN(Cc3ccc(NS(=O)(=O)c4cnn(-c5ccc(F)cc5)c4)c(S(=O)(=O)O)c3)C2)ccc1NS(=O)(=O)c1cnn(-c2ccc(F)cc2)c1` [Compound 3, 2-((1-(4-fluorophenyl)-1H-pyrazole)-4-sulfonamido)-5-((1-(4-((1-(4-fluorophenyl)-1H-pyrazole)-4-sulfonamido)-3-sulfobenzyl)azetidin-3-yl)oxy)benzoic acid] are within 1.5-fold of each other in MIC: 0.391 µM (≈ 0.321 µg/mL) for the first, 0.277 µM (≈ 0.233 µg/mL) for the second.

Compared with `O=C(CCCCC(c1ccccc1)c1ccccc1)Nc1ccc(OC2CN(Cc3ccc(NS(=O)(=O)c4cnn(-c5ccc(Cl)cc5)c4)c(C(=O)O)c3)C2)cc1C(=O)O` [Compound 74], `O=C(CCc1ccc(Cl)c(Cl)c1)Nc1ccc(OC2CN(Cc3ccc(NS(=O)(=O)c4cnn(-c5ccc(Cl)cc5)c4)c(C(=O)O)c3)C2)cc1C(=O)O` [Compound 71] is 3.2-fold lower in MIC: 0.31 µM (≈ 0.263 µg/mL) for the first, 0.0978 µM (≈ 0.0782 µg/mL) for the second.

First: O=C(Cc1cccc(Cl)c1)Nc1ccc(OC2CN(Cc3ccc(NS(=O)(=O)c4cc(-c5ccc(F)cc5)ns4)c(C(=O)O)c3)C2)cc1C(=O)O [Compound 67]
Second: O=C(NCc1cccc(Cl)c1)C(=O)Nc1ccc(OC2CN(Cc3ccc(NS(=O)(=O)c4ccc(-c5ccc(Cl)cc5)cc4)c(C(=O)O)c3)C2)cc1C(=O)O [Compound 63]
The MIC of the first is 8-fold lower: 0.0245 µM (≈ 0.0184 µg/mL) for the first, 0.196 µM (≈ 0.158 µg/mL) for the second.

`O=C(NCc1ccc(Cl)cc1)C(=O)Nc1ccc(OC2CN(Cc3ccc(NS(=O)(=O)c4ccc(-c5ccc(Cl)cc5)cc4)c(C(=O)O)c3)C2)cc1C(=O)O` [Compound 54, 5-((1-(3-carboxy-4-((4′-chloro-[1,1′-biphenyl])-4-sulfonamido)benzyl)azetidin-3-yl)oxy)-2-(2-((4-chlorobenzyl)amino)-2-oxoacetamido)benzoic acid] and `O=C(NCc1ccc(Cl)cc1)C(=O)Nc1ccc(OC2CN(Cc3ccc(NS(=O)(=O)c4cnn(-c5ccc(Cl)cc5)c4)c(C(=O)O)c3)C2)cc1C(=O)O` [Compound 58] are within 1.5-fold of each other in MIC: 0.0346 µM (≈ 0.0278 µg/mL) for the first, 0.0245 µM (≈ 0.0194 µg/mL) for the second.

`O=C(O)c1cc(COC2CC(OCc3ccc(NS(=O)(=O)c4ccc(-c5ccc(Cl)cc5)cc4)c(C(=O)O)c3)C2)ccc1NS(=O)(=O)CCc1ccc(Cl)cc1` (stereo not drawn) [Compound 17] and `O=C(O)c1cc(CN[C@H]2C[C@@H](COc3ccc(NS(=O)(=O)c4ccc(-c5ccc(Cl)cc5)s4)c(C(=O)O)c3)C2)ccc1NS(=O)(=O)CCc1ccc(Cl)cc1` [Compound 94] cannot be ordered by MIC: under 0.0488 µM for the first, 0.0086 µM (≈ 0.00727 µg/mL) for the second.

Compared with `O=C(O)c1cc(OC2CN(Cc3ccc(NS(=O)(=O)c4ccc(-c5ccccc5)s4)c(C(=O)O)c3)C2)ccc1NS(=O)(=O)CCc1ccc(F)cc1` [Compound 86], `O=C(O)c1cc(OC2CN(Cc3ccc(NS(=O)(=O)N4CCOC(c5ccc(F)cc5)C4)c(C(=O)O)c3)C2)ccc1NS(=O)(=O)CCc1ccc(F)cc1` (stereo not drawn) [Compound 84] is 2.8-fold higher in MIC: 0.0245 µM (≈ 0.0188 µg/mL) for the first, 0.0691 µM (≈ 0.0544 µg/mL) for the second.

Going from `O=C(O)c1cc(CNC2CC(CNc3ccc(NS(=O)(=O)c4cnn(-c5ccc(F)cc5)c4)c(C(=O)O)c3)C2)ccc1NS(=O)(=O)c1ccc(-c2ccc(Cl)cc2)cc1` (stereo not drawn) [Compound 30] to `O=C(O)c1cc(CN2CC(Oc3ccc(NS(=O)(=O)c4ccc(-c5ccc(Cl)cc5)cc4)c(C(=O)O)c3)C2)ccc1NS(=O)(=O)c1ccc(-c2ccc(Cl)cc2)cc1` [Compound 97, 5-((1-(3-carboxy-4-((4′-chloro-(1,l′-biphenyl))-4-sulfonamido)benzyl)azetidin-3-yl)oxy)-2-((4′-chloro-(1,l′-biphenyl))-4-sulfonamido)benzoic acid], the MIC falls from 0.277 µM (≈ 0.238 µg/mL) to 0.0978 µM (≈ 0.084 µg/mL) (2.8-fold).

Going from `O=C(O)c1cc(CN2CC(Oc3ccc(NS(=O)(=O)CCc4ccc(Cl)cc4)c(C(=O)O)c3)C2)ccc1NS(=O)(=O)CCc1ccc(Cl)cc1` [Compound 79] to `O=C(O)c1cc(CN2CC(Oc3ccc(NS(=O)(=O)c4cnn(-c5ccc(Cl)cn5)c4)c(C(=O)O)c3)C2)ccc1NS(=O)(=O)c1cnn(-c2ccc(Cl)cn2)c1` [Compound 121], the MIC rises from 0.0978 µM (≈ 0.0746 µg/mL) to 0.277 µM (≈ 0.233 µg/mL) (2.8-fold).

`O=C(O)c1cc(OC[C@H]2C[C@H](Oc3ccc(NS(=O)(=O)c4cnn(-c5ccc(Cl)cc5)c4)c(C(=O)O)c3)CN2)ccc1NS(=O)(=O)c1cnn(-c2ccc(Cl)cc2)c1` [Compound 24, trans-5-((5-((3-carboxy-4-((1-(4-chlorophenyl)-1H-pyrazole)-4-sulfonamido)-phenoxy)methyl)pyrrolidin-3-yl)oxy)-2-((1-(4-chlorophenyl)-1H-pyrazole)-4-sulfonamido)benzoic acid] and `O=C(O)c1cc(OC2CN(Cc3ccc(NS(=O)(=O)c4cnn(-c5ccc(F)cc5)c4)c(-c4nn[nH]n4)c3)C2)ccc1NS(=O)(=O)c1cnn(-c2ccc(F)cc2)c1` [Compound 114, 2-((1-(4-fluorophenyl)-1H-pyrazole)-4-sulfonamido)-5-((1-(4-((1-(4-fluorophenyl)-1H-pyrazole)-4-sulfonamido)-3-(2H-tetrazol-5-yl)benzyl)azetidin-3-yl)oxy)benzoic acid] are within 1.5-fold of each other in MIC: 0.277 µM (≈ 0.241 µg/mL) for the first, 0.246 µM (≈ 0.204 µg/mL) for the second.

Going from `O=C(O)c1cc(CN2CC(Oc3ccc(NS(=O)(=O)N4CC(Oc5ccc(F)cc5)C4)c(C(=O)O)c3)C2)ccc1NS(=O)(=O)N1CC(Oc2ccc(F)cc2)C1` [Compound 80, 5-((1-(3-carboxy-4-((3-(4-fluorophenoxy)azetidine)-1-sulfonamido)benzyl)azetidin-3-yl)oxy)-2-((3-(4-fluorophenoxy)azetidine)-1-sulfonamido)benzoic acid] to `O=C(O)c1cc(OC[C@H]2CC[C@@H](COc3ccc(NS(=O)(=O)c4ccc(-c5ccc(Cl)cc5)s4)c(C(=O)O)c3)O2)ccc1NS(=O)(=O)c1ccc(-c2ccc(Cl)cc2)s1` [Compound 23], the MIC rises from 0.0122 µM (≈ 0.00995 µg/mL) to 0.0346 µM (≈ 0.0317 µg/mL) (2.8-fold).

Same assay, conditions: lowest concentration giving >95% growth inhibition, CAMHB, 18-22 h

Going from `O=C(O)c1cc(COC2CC(OCc3ccc(NS(=O)(=O)c4cnn(-c5ccc(F)cc5)c4)c(C(=O)O)c3)C2)ccc1NS(=O)(=O)c1cnn(-c2ccc(F)cc2)c1` (stereo not drawn) [Compound 13] to `O=C(O)c1cc(CNC2CC(COc3ccc(NS(=O)(=O)c4cnn(-c5ccc(Cl)cc5)c4)c(C(=O)O)c3)C2)ccc1NS(=O)(=O)c1cnn(-c2ccc(Cl)cc2)c1` (stereo not drawn) [Compound 87, 5-(((1s, 3s)-3-((3-carboxy-4-((1-(4-chlorophenyl)-1H-pyrazole)-4-sulfonamido)benzyl)amino)cyclobutyl)methoxy)-2-((1-(4-chlorophenyl)-1H-pyrazole)-4-sulfonamido)benzoic acid], the MIC falls from 0.196 µM (≈ 0.164 µg/mL) to 0.0245 µM (≈ 0.0212 µg/mL) (8-fold).

Reference: US20250326713A1, “INHIBITORS OF MsbA AS ANTIBIOTICS, PHARMACEUTICAL COMPOSITIONS, AND USES THEREOF” (priority 2022, published 2025)
